pIC50: −log10 of the molar value.

Our source for the IC50 values is patent US8530468B2 (Cancer Research Technology Limited, priority 2008, dated 2013).

The target of one test is T1, CHK1 (Homo sapiens, UniProt O14757).
T1 sequence (O14757 1-476): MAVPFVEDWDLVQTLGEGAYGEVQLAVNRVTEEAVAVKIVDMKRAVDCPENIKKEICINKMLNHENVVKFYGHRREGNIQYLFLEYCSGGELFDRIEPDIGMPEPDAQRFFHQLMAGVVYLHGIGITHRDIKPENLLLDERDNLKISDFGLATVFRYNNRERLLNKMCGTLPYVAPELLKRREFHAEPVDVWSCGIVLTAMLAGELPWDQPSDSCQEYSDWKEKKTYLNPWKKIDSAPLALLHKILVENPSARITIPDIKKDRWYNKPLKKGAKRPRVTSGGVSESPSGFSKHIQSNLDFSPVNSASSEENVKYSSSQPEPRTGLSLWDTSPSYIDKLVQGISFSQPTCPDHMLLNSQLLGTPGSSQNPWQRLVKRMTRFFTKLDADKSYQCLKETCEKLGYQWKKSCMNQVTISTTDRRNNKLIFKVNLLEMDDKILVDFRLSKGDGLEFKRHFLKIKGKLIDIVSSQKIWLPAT
Description: CHK1 kinase function inhibition (DELFIA assay, phosphorylation of CDC25C peptide). The class given is biochemical. The note with it: CHK1 1 nM, ATP 30 μM, 30 minutes at room temperature.

In test [1] the test system is HT29 colon carcinoma cells. Description: Cytotoxicity assay (SRB). The class given is cell-based. The note with it: Homo sapiens, HT-29, 96 hours, read-out: SRB IC50 (concentration required to inhibit growth by 50%).
The test system of the next test is HT29 cells. Description: Mitosis inhibition assay (MIA), checkpoint abrogation after etoposide. Format: cell-based. The note with it: Homo sapiens, HT-29, etoposide 50 μM 1 hour, then compound with nocodazole 100 ng/mL, 21 hours, read-out: MIA IC50 (concentration required to allow 50% of cells to enter mitosis).

`N#Cc1ncc(Nc2cc3cccc(NCCO)c3cn2)nc1O[C@@H]1CCNC1` [AA-044]: the pIC50 against CHK1 is ≥ 6.00; in test [1] it was ≥ 5.00; with HT29 cells, ≥ 5.00.

On to `N#Cc1ncc(Nc2cc3ccccc3cn2)nc1OC[C@H]1CNCCO1` [AA-049], for which the pIC50 against CHK1 is ≥ 6.00; in test [1], ≥ 5.00; in the test with HT29 cells, ≥ 5.00.

`N#Cc1ncc(Nc2cc3ccccc3cn2)nc1O[C@@H]1CCNC1` [AA-050]: the pIC50 was ≥ 6.00 against CHK1, ≥ 5.00 in test [1] and ≥ 5.00 in the test on HT29 cells.

With `N#Cc1ncc(Nc2cc3cccc(Br)c3cn2)nc1OC[C@H]1CNCCO1` [AA-051], the figures for the pIC50 (at CHK1; in test [1]; with HT29 cells) were ≥ 6.00, ≥ 5.00 and ≥ 5.00, respectively.

On to `N#Cc1ncc(Nc2cc3cccc(Br)c3cn2)nc1O[C@@H]1CCNC1` [AA-052], for which the values for the pIC50 (on CHK1; in test [1]; in the test on HT29 cells) were ≥ 6.00, ≥ 5.00 and ≥ 5.00, respectively.

Take `C[C@H](CN(C)C)Oc1nc(Nc2cc3cccc(F)c3cn2)cnc1C#N` [AA-054]: the pIC50 is ≥ 6.00 against CHK1, ≥ 5.00 in test [1] and ≥ 5.00 with HT29 cells.

For `N#Cc1ncc(Nc2cc3cccc(C(F)(F)F)c3cn2)nc1O[C@@H]1CCNC1` [AA-055], the pIC50 at CHK1 is ≥ 6.00; in test [1], ≥ 5.00; in the test on HT29 cells it was ≥ 5.00.

As to `Cc1cccc2cc(Nc3cnc(C#N)c(O[C@H](C)CN(C)C)n3)ncc12` [AA-057], the pIC50 at CHK1 was ≥ 6.00; in test [1] it was ≥ 5.00; in the test on HT29 cells, ≥ 5.00.

As to `Cc1cccc2cc(Nc3cnc(C#N)c(O[C@@H]4CCNC4)n3)ncc12` [AA-058], the pIC50 is ≥ 6.00 at CHK1, ≥ 5.00 in test [1] and ≥ 5.00 in the test on HT29 cells.

Regarding `CNc1cccc2cc(Nc3cnc(C#N)cn3)ncc12` [AA-059], the pIC50 is ≥ 6.00 on CHK1, ≥ 5.00 in test [1] and ≥ 5.00 in the test with HT29 cells.

`CNc1cccc2cc(Nc3cnc(C#N)c(OC(C)CN(C)C)n3)ncc12` (stereo not drawn) [AA-060]: the pIC50 against CHK1 is ≥ 6.00; in test [1], ≥ 5.00; with HT29 cells, ≥ 5.00.

Consider `N#Cc1cnc(Nc2cc3cccc(N)c3cn2)cn1` [AA-061, 5-(8-Aminoisoquinolin-3-ylamino)pyrazine-2-carbonitrile], for which the pIC50 against CHK1 was ≥ 6.00; in test [1], ≥ 5.00; in the test with HT29 cells, ≥ 5.00.

As for `COc1cccc2cc(Nc3cnc(C#N)c(O[C@H](C)CN(C)C)n3)ncc12` [AA-067, (R)-3-(1-(Dimethylamino)propan-2-yloxy)-5-(8-methoxyisoquinolin-3-ylamino)pyrazine-2-carbonitrile], the pIC50 on CHK1 is ≥ 6.00; in test [1], ≥ 5.00; in the test on HT29 cells, ≥ 5.00.
